Earlier results as cited in patent US20220211847A1, “COMBINATION OF MONALIZUMAB, DURVALUMAB, CHEMOTHERAPY AND BEVACIZUMAB OR CETUXIMAB FOR THE TREATMENT OF COLORECTAL CANCER” (MEDIMMUNE LIMITED, priority 2019, published 2022).
Like-named read-outs stand apart in the source and are kept apart here.

Key:
CRC = conditions: similar population
[1] = system: unresectable metastatic disease (mCRC); conditions: added to oxaliplatin-based regimens
[2] = system: microsatellite instability-high CRC or mismatch repair deficient CRC; conditions: monotherapy; MSI-high or mismatch repair deficient CRC
[3] = system: MSI high CRCs and MSS CRCs

Molecule: CNC(=O)c1cc(Oc2ccc(NC(=O)Nc3ccc(Cl)c(C(F)(F)F)c3)c(F)c2)ccn1 [regorafenib]
- median OS (CRC): 6.4 months

Molecule: bevacizumab: recombinant humanized monoclonal antibody directed against human vascular endothelial growth factor (VEGF)
- increase in Progression-free survival (PFS) compared with regimens without bevacizumab [1]: 1.4 months
- difference in Overall Survival (OS) ([1]; not statistically significant): 1.4 months

Molecule: nivolumab
- ORR [2]: 28%

Molecule: pembrolizumab: humanized monoclonal IgG4 antibody directed against human cell surface receptor PD-1
- objective response rate (ORR) ([3]; 10 mg/kg Q2W, microsatellite proficient CRC): 0%
- immune-related objective response rate ([3]; MSI high CRCs): 40%
- immune-related progression free survival rate ([3]; MSI high CRCs): 78%
- patients who experienced disease progression ([3]; MSI-H CRC): 1 of 10
- patients who experienced disease progression ([3]; MSS CRC): 11/18
- immune-related objective response rate ([3]; MSS CRCs): 0%
- immune-related progression free survival rate ([3]; MSS CRCs): 11%
